In patent publication US9302999B2, “Substituted triazoles as herbicides” (E. I. DU PONT DE NEMOURS AND COMPANY, priority 2012, dated 2016):

Columns and labels:
Format in all cases: in vivo
[1] = tested on: barnyardgrass (Echinochloa crus-galli); test: Test A pre-/postemergence: barnyardgrass; conditions: for Barnyardgrass plant response rating: Postemergence; for Plant response rating, Barnyardgrass: Preemergence
Method in brief: (§1)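 Injury was scored visually on a 0 (no effect) to 100 (complete control) scale versus untreated controls roughly ten days after treatment in the greenhouse. Compounds, formulated in surfactant-containing non-phytotoxic solvent, went on as soil-directed preemergence spray or postemergence to one- to two-leaf plants 2–10 cm tall.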

[2] = tested on: crabgrass, large (large crabgrass, Digitaria sanguinalis); test: Test A pre-/postemergence: crabgrass, large; conditions: for Crabgrass, Large plant response rating: Postemergence; for Plant response rating, Crabgrass, Large: Preemergence
Method in brief: as §1

[3] = tested on: foxtail, giant (giant foxtail, Setaria faberii); test: Test A pre-/postemergence: foxtail, giant; conditions: for Foxtail, Giant plant response rating: Postemergence; for Plant response rating, Foxtail, Giant: Preemergence
Method in brief: as §1

[4] = tested on: morningglory (Ipomoea spp.); test: Test A pre-/postemergence: morningglory; conditions: for Morningglory plant response rating: Postemergence; for Plant response rating, Morningglory: Preemergence
Method in brief: as §1

[5] = tested on: pigweed (Amaranthus retroflexus); test: Test A pre-/postemergence: pigweed; conditions: for Pigweed plant response rating: Postemergence; for Plant response rating, Pigweed: Preemergence
Method in brief: as §1

[6] = tested on: velvetleaf (Abutilon theophrasti); test: Test A pre-/postemergence: velvetleaf; conditions: for Velvetleaf plant response rating: Postemergence; for Plant response rating, Velvetleaf: Preemergence
Method in brief: as §1

[7] = tested on: wheat (Triticum aestivum); test: Test A pre-/postemergence: wheat; conditions: for Wheat plant response rating: Postemergence; for Plant response rating, Wheat: Preemergence
Method in brief: as §1

corn (Zea mays) = test: Test A pre-/postemergence: corn; conditions: for Corn plant response rating: Postemergence; for Plant response rating, Corn: Preemergence
Method in brief: as §1

rice (Oryza sativa) [8] = test: Test B flooded paddy: rice; conditions: Flood; 250 g ai/ha; applied to paddy water at 2-leaf stage; visually evaluated after 13 to 15 days
Protocol: (§2) Seeds selected from rice (Oryza sativa), sedge, umbrella (small-flower umbrella sedge Cyperus difformis), ducksalad (Heteranthera limosa), and barnyardgrass (Echinochloa crus-galli) were grown to the 2-leaf stage for testing. At time of treatment, test pots were flooded to 3 cm above the soil surface, treated by application of test compounds directly to the paddy water, and then maintained at that water depth for the duration of the test.
(§3) Treated plants and controls were maintained in a greenhouse for 13 to 15 days, after which time all species were compared to controls and visually evaluated. Plant response ratings, summarized in Table B, are based on a scale of 0 to 100 where 0 is no effect and 100 is complete control. A dash (-) response means no test result.

[9] = tested on: sedge, umbrella (small-flower umbrella sedge Cyperus difformis); test: Test B flooded paddy: sedge, umbrella; conditions: Flood; 250 g ai/ha; applied to paddy water at 2-leaf stage; visually evaluated after 13 to 15 days
Protocol: as §2, §3

[10] = tested on: ducksalad (Heteranthera limosa); test: Test B flooded paddy: ducksalad; conditions: Flood; 250 g ai/ha; applied to paddy water at 2-leaf stage; visually evaluated after 13 to 15 days
Protocol: as §2, §3

[11] = tested on: barnyardgrass (Echinochloa crus-galli); test: Test B flooded paddy: barnyardgrass; conditions: Flood; 250 g ai/ha; applied to paddy water at 2-leaf stage; visually evaluated after 13 to 15 days
Protocol: as §2, §3

rice (Oryza sativa) [12] = test: Test C flooded paddy test: rice; conditions: scale 0 to 100 (0 no effect, 100 complete control)
Method in brief: (§4)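 Plants were grown to the 2-leaf stage, pots flooded to 3 cm above soil, and test compounds applied directly to the paddy water, with that depth held throughout. After 13 to 15 days in a greenhouse, injury was visually rated against controls on a 0 (no effect) to 100 (complete control) scale.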

[13] = tested on: sedge, umbrella (small-flower umbrella sedge, Cyperus difformis); test: Test C flooded paddy test: sedge, umbrella; conditions: scale 0 to 100 (0 no effect, 100 complete control)
Method in brief: as §4

[14] = tested on: ducksalad (Heteranthera limosa); test: Test C flooded paddy test: ducksalad; conditions: scale 0 to 100 (0 no effect, 100 complete control)
Method in brief: as §4

[15] = tested on: barnyardgrass (Echinochloa crus-galli); test: Test C flooded paddy test: barnyardgrass; conditions: scale 0 to 100 (0 no effect, 100 complete control)
Method in brief: as §4

[16] = 125 g ai/ha, 0 to 100 scale, 0 is no effect, 100 is complete control
[17] = 500 g ai/ha, visual rating on 0 to 100 scale (0 no effect, 100 complete control), approximately ten days
[18] = 125 g ai/ha, 0 to 100 scale (0 no effect, 100 complete control)
[19] = 500 g ai/ha, 0 to 100 scale, 0 is no effect, 100 is complete control
[20] = 1000 g ai/ha, visual rating on 0 to 100 scale (0 no effect, 100 complete control), approximately ten days
[21] = 1000 g ai/ha, 0 to 100 scale, 0 is no effect, 100 is complete control
[22] = Flood (flooded paddy test), 250 g ai/ha, visual rating after 13 to 15 days

COc1nn(-c2ccc(F)cc2)nc1C(=O)c1ccnc(C(F)(F)F)c1 [Compound 24]
Barnyardgrass plant response rating [1, 16]: 0
Barnyardgrass plant response rating [1, 17]: 20
Plant response rating, Barnyardgrass [1, 18]: 0
Plant response rating, Barnyardgrass [1, 19]: 0
Crabgrass, Large plant response rating [2, 16]: 10
Crabgrass, Large plant response rating [2, 17]: 20
Plant response rating, Crabgrass, Large [2, 18]: 0
Plant response rating, Crabgrass, Large [2, 19]: 20
Foxtail, Giant plant response rating [3, 16]: 10
Foxtail, Giant plant response rating [3, 17]: 20
Plant response rating, Foxtail, Giant [3, 18]: 20
Plant response rating, Foxtail, Giant [3, 19]: 70
Morningglory plant response rating [4, 16]: 20
Morningglory plant response rating [4, 17]: 20
Plant response rating, Morningglory [4, 18]: 0
Plant response rating, Morningglory [4, 19]: 0
Pigweed plant response rating [5, 16]: 40
Pigweed plant response rating [5, 17]: 90
Plant response rating, Pigweed [5, 18]: 0
Plant response rating, Pigweed [5, 19]: 20
Velvetleaf plant response rating [6, 16]: 20
Velvetleaf plant response rating [6, 17]: 20
Plant response rating, Velvetleaf [6, 18]: 0
Plant response rating, Velvetleaf [6, 19]: 0
Wheat plant response rating [7, 16]: 10
Wheat plant response rating [7, 17]: 10
Plant response rating, Wheat [7, 18]: 0
Plant response rating, Wheat [7, 19]: 0
Corn plant response rating (corn (Zea mays); [16]): 10
Corn plant response rating (corn (Zea mays); [17]): 20
Plant response rating, Corn (corn (Zea mays); [18]): 0
Plant response rating, Corn (corn (Zea mays); [19]): 0
Plant response rating, Rice (0 to 100 scale, 0 is no effect, 100 is complete control) (rice (Oryza sativa) [8]): 0
Plant response rating, Sedge, Umbrella (0 to 100 scale, 0 is no effect, 100 is complete control) [9]: 0
Plant response rating, Ducksalad (0 to 100 scale, 0 is no effect, 100 is complete control) [10]: 0
Plant response rating, Barnyardgrass (0 to 100 scale, 0 is no effect, 100 is complete control) [11]: 0

CSc1nn(-c2ccc(F)cc2)nc1Cc1ccnc(C(F)(F)F)c1 [Compound 27]
Barnyardgrass plant response rating [1, 16]: 0
Barnyardgrass plant response rating [1, 17]: 20
Plant response rating, Barnyardgrass [1, 18]: 0
Plant response rating, Barnyardgrass [1, 19]: 10
Crabgrass, Large plant response rating [2, 16]: 30
Crabgrass, Large plant response rating [2, 17]: 40
Plant response rating, Crabgrass, Large [2, 18]: 20
Plant response rating, Crabgrass, Large [2, 19]: 40
Foxtail, Giant plant response rating [3, 16]: 30
Foxtail, Giant plant response rating [3, 17]: 40
Plant response rating, Foxtail, Giant [3, 18]: 10
Plant response rating, Foxtail, Giant [3, 19]: 80
Morningglory plant response rating [4, 16]: 40
Morningglory plant response rating [4, 17]: 90
Plant response rating, Morningglory [4, 18]: 0
Plant response rating, Morningglory [4, 19]: 0
Pigweed plant response rating [5, 16]: 90
Pigweed plant response rating [5, 17]: 100
Plant response rating, Pigweed [5, 18]: 0
Plant response rating, Pigweed [5, 19]: 80
Velvetleaf plant response rating [6, 16]: 40
Velvetleaf plant response rating [6, 17]: 50
Plant response rating, Velvetleaf [6, 18]: 0
Plant response rating, Velvetleaf [6, 19]: 0
Wheat plant response rating [7, 16]: 20
Wheat plant response rating [7, 17]: 40
Plant response rating, Wheat [7, 18]: 0
Plant response rating, Wheat [7, 19]: 0
Corn plant response rating (corn (Zea mays); [16]): 20
Corn plant response rating (corn (Zea mays); [17]): 20
Plant response rating, Corn (corn (Zea mays); [18]): 0
Plant response rating, Corn (corn (Zea mays); [19]): 0
Plant response rating, Rice (0 to 100 scale, 0 is no effect, 100 is complete control) (rice (Oryza sativa) [8]): 10
Plant response rating, Sedge, Umbrella (0 to 100 scale, 0 is no effect, 100 is complete control) [9]: 20
Plant response rating, Ducksalad (0 to 100 scale, 0 is no effect, 100 is complete control) [10]: 50
Plant response rating, Barnyardgrass (0 to 100 scale, 0 is no effect, 100 is complete control) [11]: 20

Cc1ccc(-n2nc(C)c(C(=O)c3cccc(C(F)(F)F)c3)n2)cc1 [Compound 44]
Barnyardgrass plant response rating [1, 16]: 20
Barnyardgrass plant response rating [1, 17]: 20
Plant response rating, Barnyardgrass [1, 18]: 0
Plant response rating, Barnyardgrass [1, 19]: 30
Crabgrass, Large plant response rating [2, 16]: 30
Crabgrass, Large plant response rating [2, 17]: 40
Plant response rating, Crabgrass, Large [2, 18]: 60
Plant response rating, Crabgrass, Large [2, 19]: 90
Foxtail, Giant plant response rating [3, 16]: 20
Foxtail, Giant plant response rating [3, 17]: 30
Plant response rating, Foxtail, Giant [3, 18]: 70
Plant response rating, Foxtail, Giant [3, 19]: 90
Morningglory plant response rating [4, 16]: 20
Morningglory plant response rating [4, 17]: 70
Pigweed plant response rating [5, 16]: 70
Pigweed plant response rating [5, 17]: 90
Plant response rating, Pigweed [5, 18]: 20
Plant response rating, Pigweed [5, 19]: 90
Velvetleaf plant response rating [6, 16]: 60
Velvetleaf plant response rating [6, 17]: 70
Plant response rating, Velvetleaf [6, 18]: 0
Plant response rating, Velvetleaf [6, 19]: 50
Wheat plant response rating [7, 16]: 20
Wheat plant response rating [7, 17]: 30
Plant response rating, Wheat [7, 18]: 0
Plant response rating, Wheat [7, 19]: 30
Corn plant response rating (corn (Zea mays); [16]): 30
Corn plant response rating (corn (Zea mays); [17]): 30
Plant response rating, Corn (corn (Zea mays); [18]): 0
Plant response rating, Corn (corn (Zea mays); [19]): 20
Plant response rating, Rice (0 to 100 scale, 0 is no effect, 100 is complete control) (rice (Oryza sativa) [8]): 0
Plant response rating, Sedge, Umbrella (0 to 100 scale, 0 is no effect, 100 is complete control) [9]: 0
Plant response rating, Ducksalad (0 to 100 scale, 0 is no effect, 100 is complete control) [10]: 0
Plant response rating, Barnyardgrass (0 to 100 scale, 0 is no effect, 100 is complete control) [11]: 0

CCc1nn(-c2ccc(C(F)(F)F)cc2)nc1Cn1cnc(C(F)(F)F)c1 [Compound 133]
Barnyardgrass plant response rating [1, 20]: 40
Plant response rating, Barnyardgrass [1, 21]: 40
Crabgrass, Large plant response rating [2, 20]: 80
Plant response rating, Crabgrass, Large [2, 21]: 90
Foxtail, Giant plant response rating [3, 20]: 70
Plant response rating, Foxtail, Giant [3, 21]: 90
Morningglory plant response rating [4, 20]: 90
Plant response rating, Morningglory [4, 21]: 40
Pigweed plant response rating [5, 20]: 100
Plant response rating, Pigweed [5, 21]: 90
Velvetleaf plant response rating [6, 20]: 90
Plant response rating, Velvetleaf [6, 21]: 40
Wheat plant response rating [7, 20]: 30
Plant response rating, Wheat [7, 21]: 0
Corn plant response rating (corn (Zea mays); [20]): 20
Plant response rating, Corn (corn (Zea mays); [21]): 10
Plant response rating, Rice (rice (Oryza sativa) [12]; [22]): 0
Plant response rating, Rice (rice (Oryza sativa) [12]; Flood, 62 g ai/ha): 0
Plant response rating, Sedge, Umbrella [13, 22]: 50
Plant response rating, Sedge, Umbrella ([13]; Flood, 62 g ai/ha): 0
Plant response rating, Ducksalad [14, 22]: 20
Plant response rating, Ducksalad ([14]; Flood, 62 g ai/ha): 0
Plant response rating, Barnyardgrass [15, 22]: 15
Plant response rating, Barnyardgrass ([15]; Flood, 62 g ai/ha): 0

Cc1nn(-c2ccc(C(F)(F)F)cc2)nc1Cn1nc(C(F)(F)F)cc1C [Compound 134]
Barnyardgrass plant response rating [1, 20]: 30
Plant response rating, Barnyardgrass [1, 21]: 30
Crabgrass, Large plant response rating [2, 20]: 90
Plant response rating, Crabgrass, Large [2, 21]: 100
Foxtail, Giant plant response rating [3, 20]: 50
Plant response rating, Foxtail, Giant [3, 21]: 100
Morningglory plant response rating [4, 20]: 100
Plant response rating, Morningglory [4, 21]: 10
Pigweed plant response rating [5, 20]: 100
Plant response rating, Pigweed [5, 21]: 90
Velvetleaf plant response rating [6, 20]: 50
Plant response rating, Velvetleaf [6, 21]: 0
Wheat plant response rating [7, 20]: 0
Plant response rating, Wheat [7, 21]: 0
Corn plant response rating (corn (Zea mays); [20]): 20
Plant response rating, Corn (corn (Zea mays); [21]): 10
Plant response rating, Rice (rice (Oryza sativa) [12]; [22]): 0
Plant response rating, Rice (rice (Oryza sativa) [12]; Flood, 62 g ai/ha): 0
Plant response rating, Sedge, Umbrella [13, 22]: 0
Plant response rating, Sedge, Umbrella ([13]; Flood, 62 g ai/ha): 0
Plant response rating, Ducksalad [14, 22]: 0
Plant response rating, Ducksalad ([14]; Flood, 62 g ai/ha): 0
Plant response rating, Barnyardgrass [15, 22]: 15
Plant response rating, Barnyardgrass ([15]; Flood, 62 g ai/ha): 0
